Experimental data: patent US20220387611A1, “METHODS FOR TREATING CANCER” (BicycleRD Limited, priority 2019, published 2022)
Starred links: 1 amine or outer side, 2 acyl side, 3 side chain; linkers in the order of their positions; H or OH if unused. Positions of bridges follow the written chain, without caps; N, C: chain ends. Non-standard residues stand in square brackets, D forms with d. Residues, ends and D or L forms follow the SMILES beside them. 1Nal = N[C@@H](Cc1cccc2ccccc12)C(=O)O; TBMB = c1c(C[*:1])cc(C[*:3])cc1C[*:2]; Tle = CC(C)(C)[C@H](N)C(=O)O; βAla = NCCC(=O)O; Sar = CNCC(=O)O

Assays:
[1] = tested on: cell migration or invasion; assay: Effect on cell migration or invasion; type: cell-based; conditions: in vitro
MT1 = MT1 (Homo sapiens, UniProt P50281); assay: Effect on catalytic activity of the protease in vitro; type: biochemical
MMP1 [2] = molecular target: T1, MMP1 (Homo sapiens, UniProt P03956); assay: Binding to related MMP family member
T1 sequence (P03956 100-469): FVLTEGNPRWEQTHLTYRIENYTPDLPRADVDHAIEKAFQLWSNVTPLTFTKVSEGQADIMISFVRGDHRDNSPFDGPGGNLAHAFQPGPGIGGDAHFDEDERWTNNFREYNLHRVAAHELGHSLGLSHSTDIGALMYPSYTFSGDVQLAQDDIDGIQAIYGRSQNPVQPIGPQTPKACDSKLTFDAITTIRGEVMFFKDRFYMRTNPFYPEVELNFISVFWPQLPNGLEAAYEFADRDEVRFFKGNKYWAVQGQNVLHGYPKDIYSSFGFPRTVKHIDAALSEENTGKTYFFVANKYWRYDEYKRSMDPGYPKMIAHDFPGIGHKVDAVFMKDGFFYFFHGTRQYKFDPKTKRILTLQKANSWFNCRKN

MMP2 [3] = molecular target: T2, MMP2 (Homo sapiens, UniProt P08253); assay: Binding to related MMP family member
T2 sequence (P08253 110-660): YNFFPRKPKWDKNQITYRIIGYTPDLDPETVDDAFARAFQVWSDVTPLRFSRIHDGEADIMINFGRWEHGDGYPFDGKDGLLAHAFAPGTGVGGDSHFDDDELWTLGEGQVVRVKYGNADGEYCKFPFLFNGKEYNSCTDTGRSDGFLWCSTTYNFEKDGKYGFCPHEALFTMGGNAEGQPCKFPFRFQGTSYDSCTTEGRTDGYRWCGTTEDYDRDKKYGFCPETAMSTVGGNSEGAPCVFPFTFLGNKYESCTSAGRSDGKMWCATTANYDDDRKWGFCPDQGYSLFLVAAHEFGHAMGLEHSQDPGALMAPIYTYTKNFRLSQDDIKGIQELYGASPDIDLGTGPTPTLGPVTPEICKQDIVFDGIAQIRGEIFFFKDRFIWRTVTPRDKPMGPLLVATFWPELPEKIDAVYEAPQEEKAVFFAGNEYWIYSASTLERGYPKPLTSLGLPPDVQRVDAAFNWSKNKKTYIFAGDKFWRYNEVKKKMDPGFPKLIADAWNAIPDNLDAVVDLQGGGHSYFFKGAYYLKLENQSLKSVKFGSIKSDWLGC

MMP24 = MMP24 (Homo sapiens, UniProt Q9Y5R2); assay: Binding to related MMP family member
MMP24, sequence (Q9Y5R2 156-645, species assumed): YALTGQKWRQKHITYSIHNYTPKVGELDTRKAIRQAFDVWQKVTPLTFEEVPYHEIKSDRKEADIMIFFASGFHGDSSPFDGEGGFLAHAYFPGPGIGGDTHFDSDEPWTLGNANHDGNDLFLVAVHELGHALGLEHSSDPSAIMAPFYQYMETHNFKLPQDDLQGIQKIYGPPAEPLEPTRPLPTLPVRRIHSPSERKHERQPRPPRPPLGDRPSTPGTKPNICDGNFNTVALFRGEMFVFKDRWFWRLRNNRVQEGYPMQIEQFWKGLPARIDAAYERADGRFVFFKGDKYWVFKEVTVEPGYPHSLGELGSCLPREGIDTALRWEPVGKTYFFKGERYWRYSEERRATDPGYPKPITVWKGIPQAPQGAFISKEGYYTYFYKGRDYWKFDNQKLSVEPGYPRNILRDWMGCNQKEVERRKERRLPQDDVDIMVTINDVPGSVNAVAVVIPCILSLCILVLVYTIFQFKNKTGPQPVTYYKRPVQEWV

MMP1 [4] = molecular target: T1, MMP1; assay: Effect on related MMP catalytic activity; type: biochemical; conditions: in vitro
MMP16 = MMP16 (Homo sapiens, UniProt P51512); assay: Binding to related MMP family member
MMP16, sequence (P51512 120-607, species assumed): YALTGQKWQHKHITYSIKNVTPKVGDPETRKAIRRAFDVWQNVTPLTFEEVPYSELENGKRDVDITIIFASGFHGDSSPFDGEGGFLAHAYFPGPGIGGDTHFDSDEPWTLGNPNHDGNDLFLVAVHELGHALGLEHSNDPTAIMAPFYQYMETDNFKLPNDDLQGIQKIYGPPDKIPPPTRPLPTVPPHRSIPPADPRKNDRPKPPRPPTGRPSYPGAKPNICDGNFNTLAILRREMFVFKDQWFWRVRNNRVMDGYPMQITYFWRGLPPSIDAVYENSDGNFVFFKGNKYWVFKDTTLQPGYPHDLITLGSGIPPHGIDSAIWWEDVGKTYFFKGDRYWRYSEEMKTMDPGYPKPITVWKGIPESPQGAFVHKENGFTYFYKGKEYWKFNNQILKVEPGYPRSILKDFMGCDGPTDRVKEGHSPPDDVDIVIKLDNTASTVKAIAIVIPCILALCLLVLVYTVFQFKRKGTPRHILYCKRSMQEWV

MMP9 = MMP9 (Homo sapiens, UniProt P14780); assay: Effect on related MMP catalytic activity; type: biochemical; conditions: in vitro
MMP9, sequence (P14780 94-707, species assumed): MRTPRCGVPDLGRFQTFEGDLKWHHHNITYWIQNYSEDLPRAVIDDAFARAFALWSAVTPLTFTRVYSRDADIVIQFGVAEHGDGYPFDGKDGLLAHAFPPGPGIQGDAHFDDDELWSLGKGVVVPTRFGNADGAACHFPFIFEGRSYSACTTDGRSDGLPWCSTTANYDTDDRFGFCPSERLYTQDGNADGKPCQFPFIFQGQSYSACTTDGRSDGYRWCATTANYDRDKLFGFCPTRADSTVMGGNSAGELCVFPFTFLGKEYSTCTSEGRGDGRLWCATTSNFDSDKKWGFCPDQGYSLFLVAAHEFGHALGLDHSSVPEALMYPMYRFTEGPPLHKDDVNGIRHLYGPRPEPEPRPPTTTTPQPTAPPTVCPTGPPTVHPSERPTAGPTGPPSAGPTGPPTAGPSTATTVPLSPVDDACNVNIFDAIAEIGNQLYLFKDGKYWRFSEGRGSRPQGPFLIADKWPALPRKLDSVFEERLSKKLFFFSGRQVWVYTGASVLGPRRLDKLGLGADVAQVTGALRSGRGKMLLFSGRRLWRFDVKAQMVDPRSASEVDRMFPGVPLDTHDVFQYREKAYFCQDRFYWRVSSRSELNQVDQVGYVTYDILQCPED

Pro-MMP1 = molecular target: T3, Pro-MMP1 (Homo sapiens, UniProt P03956); assay: Binding to related MMP family member
T3 construct: MMP family members tested (MMP15, MMP16, MMP24, MMP1, Pro-MMP1, MMP2)
T3 sequence (P03956 20-469 limits assumed): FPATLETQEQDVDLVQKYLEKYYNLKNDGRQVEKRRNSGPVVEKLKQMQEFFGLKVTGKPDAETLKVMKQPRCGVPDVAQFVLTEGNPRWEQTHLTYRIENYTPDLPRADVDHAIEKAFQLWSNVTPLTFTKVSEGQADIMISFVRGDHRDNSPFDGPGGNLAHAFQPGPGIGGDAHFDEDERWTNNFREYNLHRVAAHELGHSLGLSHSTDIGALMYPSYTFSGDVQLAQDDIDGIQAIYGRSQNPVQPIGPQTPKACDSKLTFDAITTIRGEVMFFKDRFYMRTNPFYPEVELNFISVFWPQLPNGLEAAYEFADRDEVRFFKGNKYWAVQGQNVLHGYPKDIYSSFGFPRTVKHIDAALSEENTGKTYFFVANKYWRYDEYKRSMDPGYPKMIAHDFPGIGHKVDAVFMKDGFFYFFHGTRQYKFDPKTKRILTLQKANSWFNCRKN

catalytic domain of MT1 = catalytic domain of MT1 (Homo sapiens, UniProt P50281); assay: Bicycle peptide binding to catalytic domain
MMP2 [5] = molecular target: T2, MMP2; assay: Effect on related MMP catalytic activity; type: biochemical; conditions: in vitro
MMP15 = MMP15 (Homo sapiens, UniProt P51511); assay: Binding to related MMP family member
MMP15, sequence (P51511 132-669, species assumed): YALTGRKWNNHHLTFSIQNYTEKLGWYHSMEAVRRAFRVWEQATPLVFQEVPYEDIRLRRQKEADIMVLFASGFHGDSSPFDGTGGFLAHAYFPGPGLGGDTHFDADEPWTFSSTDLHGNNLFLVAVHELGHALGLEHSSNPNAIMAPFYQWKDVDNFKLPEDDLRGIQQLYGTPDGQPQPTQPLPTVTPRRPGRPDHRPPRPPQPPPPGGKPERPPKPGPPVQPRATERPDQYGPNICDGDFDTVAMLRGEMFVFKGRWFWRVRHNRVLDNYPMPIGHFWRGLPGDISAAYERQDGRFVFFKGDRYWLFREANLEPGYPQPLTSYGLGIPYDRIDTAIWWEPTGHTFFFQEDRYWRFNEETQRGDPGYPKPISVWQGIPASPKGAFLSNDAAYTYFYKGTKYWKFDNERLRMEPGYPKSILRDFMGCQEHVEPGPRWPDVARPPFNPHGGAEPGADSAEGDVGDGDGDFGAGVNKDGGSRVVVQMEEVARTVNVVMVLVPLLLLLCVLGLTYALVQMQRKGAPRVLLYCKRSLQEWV

[6] = tested on: MT1-positive tumor xenografts; assay: Tumor localization after IV injection into mice bearing MT1-positive tumor xenografts; conditions: mouse, in vivo

## C[C@H](NC(=O)CN(C)C(=O)CN(C)C(=O)CN(C)C(=O)CN(C)C(=O)CN(C)C(=O)CN(C)C(=O)CN(C)C(=O)CN(C)C(=O)CN(C)C(=O)CN(C)C(=O)CCN)C(=O)N[C@H]1CSCc2cc3cc(c2)CSC[C@H](NC(=O)[C@@H](C)NC(=O)[C@H](Cc2cccc4ccccc24)NC(=O)[C@H](CCC(=O)O)NC(=O)[C@H](CC(N)=O)NC(=O)[C@@H](C)NC1=O)C(=O)N[C@@H](CCC(=O)O)C(=O)N[C@@H](CC(=O)O)C(=O)N[C@@H](Cc1ccccc1)C(=O)N[C@@H](Cc1ccc(O)cc1)C(=O)N[C@@H](CC(=O)O)C(=O)N[C@@H](C(C)(C)C)C(=O)N[C@H](C(N)=O)CSC3 [N241] (H-[βAla][Sar][Sar][Sar][Sar][Sar][Sar][Sar][Sar][Sar][Sar]AC[dA]NE[1Nal][dA]CEDFYD[Tle]C-NH2; linker 13-19-26 via TBMB)
[1]
  impact on cell migration or invasion: no direct impact
MT1
  impact on the catalytic activity of the protease (MT1): no direct impact
MMP1 [2]
  binding toward MMP1: no binding
MMP2 [3]
  binding toward MMP2: no binding
MMP24
  binding toward MMP24: no binding
MMP1 [4]
  impact on MMP1 catalytic activity: no direct impact
MMP16
  binding toward MMP16: no binding
MMP9
  impact on MMP9 catalytic activity: no direct impact
Pro-MMP1
  binding toward Pro-MMP1: no binding
Catalytic domain of MT1
  binding to the catalytic domain: no binding
MMP2 [5]
  impact on MMP2 catalytic activity: no direct impact
MMP15
  binding toward MMP15: no binding

## C[C@H](NC(=O)CN(C)C(=O)CN(C)C(=O)CN(C)C(=O)CN(C)C(=O)CN(C)C(=O)CN(C)C(=O)CN(C)C(=O)CN(C)C(=O)CN(C)C(=O)CN(C)C(=O)CCN)C(=O)N[C@H]1CSCc2cc3cc(c2)CSC[C@H](NC(=O)[C@@H](C)NC(=O)[C@H](Cc2cccc4ccccc24)NC(=O)[C@H](CCC(=O)O)NC(=O)[C@H](CC(N)=O)NC(=O)[C@@H](C)NC1=O)C(=O)N[C@@H](CCC(=O)O)C(=O)N[C@@H](CC(=O)O)C(=O)N[C@@H](Cc1ccccc1)C(=O)N[C@@H](Cc1ccc(O)cc1)C(=O)N[C@@H](CC(=O)O)C(=O)N[C@@H](C(C)(C)C)C(=O)N[C@H](C(N)=O)CSC3 [^177Lu-loaded N241, metal not drawn] (H-[βAla][Sar][Sar][Sar][Sar][Sar][Sar][Sar][Sar][Sar][Sar]AC[dA]NE[1Nal][dA]CEDFYD[Tle]C-NH2; linker 13-19-26 via TBMB; N-terminus and C-terminus assumed)
[6]
  tumor localization: rapid tumor localization
